We go through one molecule from ChEMBL document CHEMBL5331068, “Briarane-type diterpenoids, the inhibitors of osteoclast formation by interrupting Keap1-Nrf2 interaction and activating Nrf2 pathway” (Eur J Med Chem, 2023).

Active and inactive are the calls of the source. The calls are words filed in the database; no cut-off is given here.

In experiment [1] the test system is BMDM. Put plainly: Anti-osteoclastogenesis activity in RANKL-induced C57BL/6 mouse BMDM cells assessed as suppression of late stage osteoclast differentiation at 10 uM incubated from day 3 to day 5 in the presence of M-CSF by TRAP-staining based microscopic analysis. The class given is functional, cell-based. The conditions noted are these: time 2.0 day.
The test system of experiment [2] is BMDM. Briefly: Anti-osteoclastogenesis activity in RANKL-induced C57BL/6 mouse BMDM cells assessed as inhibition of NFATc1 protein level at 5 to 10 uM in the presence of M-CSF by Western blot analysis. Format: functional, cell-based. The conditions noted are these: dose 5-10 µM.
Experiment [3] concerns RAW264.7. Put plainly: Anti-osteoclastogenesis activity in RANKL-induced mouse RAW264.7 cells transfected with Nrf2 siRNA assessed as increase in c-fos expression level incubated for 3 days by Western blot analysis. The class given is functional, cell-based. The settings on record: time 3.0 day.
Experiment [4] concerns BMDM. Put plainly: Anti-osteoclastogenesis activity in RANKL-induced C57BL/6 mouse BMDM cells assessed as downregulation of NFATc1 mRNA expression at 5 to 10 uM by qRT-PCR analysis. Format: functional, cell-based. The conditions noted are these: dose 5-10 µM.
The subject of experiment [5] is BMDM. Briefly: Anti-osteoclastogenesis activity in RANKL-induced C57BL/6 mouse BMDM cells assessed as downregulation of cathepsin K mRNA expression at 5 to 10 uM by qRT-PCR analysis. Format: functional, cell-based. The settings on record: dose 5-10 µM.
Experiment [6] deals with BMDM. Briefly: Anti-osteoclastogenesis activity in C57BL/6 mouse BMDM cells transfected with Nrf2 siRNA assessed as inhibition of RANKL-induced osteoclastogenesis at 10 uM incubated for 5 days in the presence of M-CSF by TRAP-staining based microscopic analysis. The conditions noted are these: time 5.0 day. Format: functional, cell-based.
Experiment [7] addresses Transcription factor p65 (Mus musculus) (UniProt Q04207). Put plainly: Inhibition of RANKL-induced p65 NF-kappaB phosphorylation in C57BL/6 mouse BMDM cells incubated for 60 mins by Western blot analysis. The class given is cell-based.
Experiment [8] addresses MAP kinase p38 (Mus musculus) (UniProt P47811+O08911+Q9WUI1+Q9Z1B7). Briefly: Inhibition of RANKL-induced p38 MAPK phosphorylation in C57BL/6 mouse BMDM cells incubated for 60 mins by Western blot analysis. The class given is cell-based.
In experiment [9] the test system is BMDM. Put plainly: Anti-osteoclastogenesis activity in C57BL/6 mouse BMDM cells assessed as reduction in RANKL-induced ROS level at 5 to 10 uM incubated for 6 hrs by DCF-DA staining based fluorescence analysis. The class given is functional, cell-based. The settings on record: dose 5-10 µM.
The nature of experiment [10]: Inhibition of RANKL-induced ERK phosphorylation in C57BL/6 mouse BMDM cells transfected with Nrf2 siRNA at 10 uM incubated for 60 mins by Western blot analysis. Format: cell-based.
The subject of experiment [11] is BMDM. Briefly: Anti-osteoclastogenesis activity in RANKL-induced C57BL/6 mouse BMDM cells assessed as downregulation of TRAP mRNA expression at 5 to 10 uM by qRT-PCR analysis. Format: functional, cell-based. The settings on record: dose 5-10 µM.
The test system of experiment [12] is RAW264.7. Briefly: Anti-osteoclastogenesis activity in RANKL-induced mouse RAW264.7 cells transfected with Nrf2 siRNA assessed as increase in NQO-1 expression level incubated for 3 days by Western blot analysis. The class given is functional, cell-based. The conditions noted are these: time 3.0 day.
The target of experiment [13] is Transcription factor p65 (Mus musculus) (UniProt Q04207). Briefly: Inhibition of RANKL-induced p65 NF-kappaB phosphorylation in C57BL/6 mouse BMDM cells transfected with Nrf2 siRNA at 10 uM incubated for 60 mins by Western blot analysis. Format: cell-based.
The subject of experiment [14] is BMDM. Briefly: Anti-osteoclastogenesis activity in RANKL-induced C57BL/6 mouse BMDM cells assessed as decrease in bone resorption pit area incubated for 10 days in the presence of M-CSF by inverted microscopic analysis. Format: functional, cell-based. The settings on record: dose 1-10 µM, time 10.0 day.
Experiment [15] addresses Kelch-like ECH-associated protein 1/Nuclear factor erythroid 2-related factor 2 (Mus musculus) (UniProt Q60795+Q9Z2X8). Briefly: Disruption of Nrf2 -Keap1 protein-protein interaction in RANKL-induced C57BL/6 mouse BMDM cells incubated for 24 hrs by Western blot based co-immunoprecipitation analysis. Format: cell-based.
Experiment [16] relates to BMDM. Put plainly: Anti-osteoclastogenesis activity in RANKL-induced C57BL/6 mouse BMDM cells assessed as elimination of TRAP-positive multinucleated osteoclast incubated for 7 days in the presence of M-CSF by TRAP-staining based microscopic analysis. Format: functional, cell-based. The settings on record: dose 1-10 µM, time 7.0 day.
The subject of experiment [17] is BMDM. Briefly: Anti-osteoclastogenesis activity in RANKL-induced C57BL/6 mouse BMDM cells assessed as suppression of early stage osteoclast differentiation at 10 uM incubated from day 1 to day 3 in the presence of M-CSF by TRAP-staining based microscopic analysis. The class given is functional, cell-based. The settings on record: time 2.0 day.
In experiment [18] the target is T1, Nuclear factor erythroid 2-related factor 2 (Mus musculus) (UniProt Q60795).
T1 sequence (whole entry): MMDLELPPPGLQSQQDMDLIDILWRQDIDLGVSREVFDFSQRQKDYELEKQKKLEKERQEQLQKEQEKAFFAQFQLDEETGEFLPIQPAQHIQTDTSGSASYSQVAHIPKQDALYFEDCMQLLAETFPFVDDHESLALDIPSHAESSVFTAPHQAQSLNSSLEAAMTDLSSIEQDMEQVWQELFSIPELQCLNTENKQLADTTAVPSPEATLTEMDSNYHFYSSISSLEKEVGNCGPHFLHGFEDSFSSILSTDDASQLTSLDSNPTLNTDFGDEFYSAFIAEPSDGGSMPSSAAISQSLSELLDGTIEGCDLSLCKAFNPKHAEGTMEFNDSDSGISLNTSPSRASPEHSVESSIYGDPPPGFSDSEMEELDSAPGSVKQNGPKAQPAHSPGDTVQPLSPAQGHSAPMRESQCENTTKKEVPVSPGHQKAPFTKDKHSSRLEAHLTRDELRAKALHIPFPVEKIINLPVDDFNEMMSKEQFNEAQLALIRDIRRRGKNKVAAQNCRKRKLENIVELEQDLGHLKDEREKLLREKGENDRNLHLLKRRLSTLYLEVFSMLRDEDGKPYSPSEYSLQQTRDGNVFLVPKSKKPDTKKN
Put plainly: Stabilization of Nrf2 in mouse RAW264.7 cells assessed as increase in Nrf2 protein level preincubated with compound for 6 hrs followed by CHX addition and measured after 45 mins by Western blot analysis. The class given is cell-based. The settings on record: time 405.0 min.

Experiment [19] deals with Keap1/Nrf2 (Homo sapiens) (UniProt Q16236+Q14145). Briefly: Disruption of 16mer biotinylated Nrf2 (unknown origin)-Keap1 kelch domain (unknown origin) protein-protein interaction upto 100 uM by Biolayer Interferometry assay.
The subject of experiment [20] is BMDM. Put plainly: Anti-osteoclastogenesis activity in RANKL-induced C57BL/6 mouse BMDM cells assessed as decrease in bone resorption pit number incubated for 10 days in the presence of M-CSF by inverted microscopic analysis. Format: functional, cell-based. The settings on record: dose 1-10 µM, time 10.0 day.

Transcription factor p65 (Mus musculus), sequence (Q04207 whole entry): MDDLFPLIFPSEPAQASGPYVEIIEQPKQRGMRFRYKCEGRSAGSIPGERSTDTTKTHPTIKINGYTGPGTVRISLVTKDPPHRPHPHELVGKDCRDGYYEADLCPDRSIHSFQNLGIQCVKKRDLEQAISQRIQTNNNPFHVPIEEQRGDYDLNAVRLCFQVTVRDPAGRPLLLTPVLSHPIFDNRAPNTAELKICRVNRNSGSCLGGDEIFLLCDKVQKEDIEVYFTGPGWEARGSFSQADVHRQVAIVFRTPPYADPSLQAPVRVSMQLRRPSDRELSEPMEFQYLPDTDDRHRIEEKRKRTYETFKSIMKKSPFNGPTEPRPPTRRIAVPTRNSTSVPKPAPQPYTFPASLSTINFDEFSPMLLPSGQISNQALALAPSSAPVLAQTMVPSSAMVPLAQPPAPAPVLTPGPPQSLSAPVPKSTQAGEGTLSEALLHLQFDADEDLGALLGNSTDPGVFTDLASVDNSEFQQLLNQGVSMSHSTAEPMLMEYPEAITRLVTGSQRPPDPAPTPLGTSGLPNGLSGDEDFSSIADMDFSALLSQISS
Keap1/Nrf2 (Homo sapiens), sequence (Q14145 whole entry, looked up, the tested form may be a part): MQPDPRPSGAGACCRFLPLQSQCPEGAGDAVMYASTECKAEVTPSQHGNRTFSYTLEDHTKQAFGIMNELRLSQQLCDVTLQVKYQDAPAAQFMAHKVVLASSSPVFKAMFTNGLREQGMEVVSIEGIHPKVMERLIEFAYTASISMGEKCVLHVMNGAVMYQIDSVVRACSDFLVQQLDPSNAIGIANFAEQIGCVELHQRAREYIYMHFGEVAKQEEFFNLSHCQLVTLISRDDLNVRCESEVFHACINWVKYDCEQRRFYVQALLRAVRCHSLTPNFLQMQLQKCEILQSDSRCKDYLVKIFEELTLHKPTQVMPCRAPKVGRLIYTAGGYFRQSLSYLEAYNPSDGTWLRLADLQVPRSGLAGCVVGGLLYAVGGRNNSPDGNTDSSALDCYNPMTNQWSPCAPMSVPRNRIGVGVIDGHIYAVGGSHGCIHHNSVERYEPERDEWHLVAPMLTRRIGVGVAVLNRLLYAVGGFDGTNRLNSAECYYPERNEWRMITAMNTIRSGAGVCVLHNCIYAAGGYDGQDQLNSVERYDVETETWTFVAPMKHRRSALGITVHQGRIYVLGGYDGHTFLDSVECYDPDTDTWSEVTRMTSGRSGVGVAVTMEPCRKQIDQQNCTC
Keap1/Nrf2 (Homo sapiens), sequence (Q16236 whole entry, looked up, the tested form may be a part): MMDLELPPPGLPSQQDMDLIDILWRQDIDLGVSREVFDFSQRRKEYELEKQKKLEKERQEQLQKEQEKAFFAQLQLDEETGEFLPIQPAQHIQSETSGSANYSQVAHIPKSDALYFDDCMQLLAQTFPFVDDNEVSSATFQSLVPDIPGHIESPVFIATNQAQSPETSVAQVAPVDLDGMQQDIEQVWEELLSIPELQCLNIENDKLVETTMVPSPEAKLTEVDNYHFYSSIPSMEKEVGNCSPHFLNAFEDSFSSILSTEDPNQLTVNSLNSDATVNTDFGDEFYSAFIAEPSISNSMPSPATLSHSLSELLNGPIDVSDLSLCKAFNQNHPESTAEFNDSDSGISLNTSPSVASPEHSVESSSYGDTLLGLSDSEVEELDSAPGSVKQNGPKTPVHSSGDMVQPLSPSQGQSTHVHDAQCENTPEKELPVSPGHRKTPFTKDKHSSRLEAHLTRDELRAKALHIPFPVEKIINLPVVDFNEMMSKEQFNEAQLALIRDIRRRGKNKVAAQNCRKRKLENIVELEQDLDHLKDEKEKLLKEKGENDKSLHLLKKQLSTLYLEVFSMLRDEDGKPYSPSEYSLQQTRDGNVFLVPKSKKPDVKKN
Kelch-like ECH-associated protein 1/Nuclear factor erythroid 2-related factor 2 (Mus musculus), sequence (Q9Z2X8 whole entry, looked up, one chain of several): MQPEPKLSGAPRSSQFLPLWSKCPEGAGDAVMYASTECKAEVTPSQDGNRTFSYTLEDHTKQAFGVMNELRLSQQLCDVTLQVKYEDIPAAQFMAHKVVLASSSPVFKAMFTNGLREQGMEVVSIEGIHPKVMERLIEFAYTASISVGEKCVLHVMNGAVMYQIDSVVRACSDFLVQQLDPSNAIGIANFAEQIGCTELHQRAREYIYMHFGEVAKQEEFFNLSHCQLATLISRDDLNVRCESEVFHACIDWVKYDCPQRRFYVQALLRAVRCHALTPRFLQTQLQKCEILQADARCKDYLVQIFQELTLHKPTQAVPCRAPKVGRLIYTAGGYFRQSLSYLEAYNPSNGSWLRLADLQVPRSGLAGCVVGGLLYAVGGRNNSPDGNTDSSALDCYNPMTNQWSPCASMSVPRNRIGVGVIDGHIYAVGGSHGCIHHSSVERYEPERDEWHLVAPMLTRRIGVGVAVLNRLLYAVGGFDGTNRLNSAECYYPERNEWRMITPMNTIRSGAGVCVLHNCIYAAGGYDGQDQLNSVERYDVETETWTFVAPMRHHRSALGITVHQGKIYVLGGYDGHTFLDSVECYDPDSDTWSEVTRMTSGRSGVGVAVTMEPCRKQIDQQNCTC

Take `C=C1[C@H]2O[C@]3([C@@H](C)C(=O)O[C@H]3[C@H]1Cl)[C@@H](OC(C)=O)[C@H]1[C@]3(CC[C@H](OC(C)=O)[C@]1(C)[C@@H](OC(C)=O)[C@@H]2OC(C)=O)CO3`: the outcome with BMDM [1], in the experiment with BMDM [2], in the experiment with BMDM [4], in the experiment on BMDM [5], with BMDM [9] and with BMDM [11] was Active. For the same molecule, the result (in experiment [15]; in the experiment with BMDM [17]; in experiment [18]; in [19]) was Active. In addition, the result in the experiment with RAW264.7 [3], in the experiment on BMDM [6] and in the experiment with RAW264.7 [12] was inactive. Moreover, the inhibition result in experiment [7] and in experiment [8] was “Active” each time. Moreover, the inhibition result in [10] and in experiment [13] was “inactive” each time. Also, the Activity entry in the experiment with BMDM [14], with BMDM [16] and with BMDM [20] was “Dose-Dependent Effect” throughout.
